Measurements taken from patent publication US7544703B2, “Cyclic compound having 4-pyridylalkylthio group having substituted or unsubstituted amino group introduced therein” (Santen Pharmaceutical Co., Ltd., priority 2004, dated 2009).
Structures can show the parent of a compound that is named as a salt.

test system: HUVEC (normal human umbilical vein endothelial cells); assay: VEGF-induced HUVEC proliferation: cell proliferation inhibitory action test; assay type: cell-based; settings: 72 h, 5 μL of 20 μg/mL test compound solution per well, WST-8 absorbance at 450 nm three days after VEGF addition, read-out: Cell proliferation inhibition rate (%);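 note: each well holds 100 µL cell suspension before compound addition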
Procedure: A cell proliferation inhibitory action test of the compounds of the present invention was performed using a VEGF-induced HUVEC proliferation evaluation system (HUVEC stands for normal human umbilical vein endothelial cells), which is one of the widely-used methods of evaluating in vitro angiogenesis inhibitory effects of drugs. As one of the widely-used methods of evaluating angiogenesis inhibitory effects of drugs, a cell proliferation inhibitory action test using a VEGF-induced HUVEC proliferation reaction evaluation system has been reported in Cancer Res., 59, 99-106 (1999). According to the method described in the above-mentioned document, a cell proliferation inhibitory action test of the compounds of the present invention was performed, the cell proliferation inhibition rate was calculated, and the angiogenesis inhibitory effect of each of the compounds of the present invention was evaluated using the obtained rate as an index. Each test compound was dissolved in dimethyl sulfoxide (hereinafter abbreviated as DMSO), and the obtained solution was diluted with a commercially available phosphoric acid buffer solution (hereinafter abbreviated as PBS), whereby a 20 μg/mL test compound solution was prepared. HUVEC was suspended in a 0.5% fetal bovine serum (hereinafter abbreviated as FBS)-containing F12K medium, whereby a 2×10^4 cells/mL HUVEC suspension was prepared. VEGF was dissolved in 0.1% bovine serum albumin-containing PBS, and the obtained solution was diluted with the 0.5% FBS-containing F12K medium, whereby a 400 ng/mL VEGF solution was prepared. • 1) The HUVEC suspension was inoculated in an amount of 100 μL into each well of a 96-well plate coated with type I collagen (2×10^3 cells per well). • 2) One day after the inoculation, the test compound solution was added in an amount of 5 μL per well. • 3) One hour after the addition of the test compound solution, the VEGF solution was added in an amount of 5 μL per well. • 4) Three days after the addition of the VEGF solution, WST-8 assay kit (Dojin Chemical Co., Ltd.) was added in an amount of 10 μL per well. • 5) After 3 hours, the above-mentioned plate was attached to an absorptiometer (Multilabel Counter ARVO), and an absorbance at 450 nm of each well suspension (hereinafter referred to as test compound suspension) was measured. • 6) A test was carried out in the same manner as in the above 1) to 5) except that 1.0% DMSO was used instead of the test compound solution. The result was used as a control. Incubation was carried out under conditions of 37° C., 5% carbon dioxide and […] in an incubator throughout the above-mentioned test steps. The cell proliferation inhibition rate (%), which was used as an index of an angiogenesis inhibitory effect, was calculated according to the following calculation equation. Cell proliferation inhibition rate (%)=100−{(Absorbance of test compound suspension−A)/(absorbance of control−A)}×100 (Calculation Equation) A: Absorbance of only cell suspension (cell+medium) (Test Results and Discussion)

| SMILES | inhibition at 20 µg/mL (stock) |
| --- | --- |
| O=C(Nc1ccc2c(c1)CCC2)c1cccnc1SCc1ccnc(N2CCOCC2)c1 [Compound 1-10, N-(Indan-5-yl)-2-(2-morpholinopyridin-4-ylmethylthio)pyridine-3-carboxamide] | 94% |
| Cc1cc(C)cc(NC(=O)c2cccnc2SCc2ccnc(NC(=O)C(C)C)c2)c1 [Compound 4-4, N-(3,5-Dimethylphenyl)-2-(2-isobutyrylaminopyridin-4-ylmethylthio)pyridine-3-carboxamide] | 100% |
| Cc1cc(C)cc(NC(=O)c2sccc2SCc2ccnc(N)c2)c1 [Compound 3-28, 3-(2-Aminopyridin-4-ylmethylthio)-N-(3,5-dimethylphenyl)thiophene-2-carboxamide] | 100% |
| Nc1cc(CSc2ncccc2C(=O)Nc2ccc3c(c2)CCC3)ccn1 [Compound 3-3, 2-(2-Aminopyridin-4-ylmethylthio)-N-(indan-5-yl)pyridine-3-carboxamide monohydrochloride] | 100% |
| Nc1cc(CSc2ncccc2C(=O)Nc2ccc3cn[nH]c3c2)ccn1 [Compound 3-5, 2-(2-Aminopyridin-4-ylmethylthio)-N-(1H-indazol-6-yl)pyridine-3-carboxamide monohydrochloride] | 96% |
| NCC(=O)Nc1cc(CSc2ncccc2C(=O)Nc2ccc(OC(F)F)cc2)ccn1 [Compound 18-1, 2-(2-Aminoacetylaminopyridin-4-ylmethylthio)-N-(4-difluoromethoxyphenyl)pyridine-3-carboxamide] | 88% |
| CC(C)c1cccc(NC(=O)c2cccnc2SCc2ccnc(NC(=O)OC(C)(C)C)c2)c1 [Compound 2-2, 2-(2-tert-Butoxycarbonylaminopyridin-4-ylmethylthio)-N-(3-isopropylphenyl)pyridine-3-carboxamide] | 100% |
| Cc1cc(C)cc(NC(=O)c2cccnc2SCc2ccnc(N(C)CCN(C)C)c2)c1 [Compound 1-3, 2-[2-(N-(2-Dimethylaminoethyl)-N-methylamino)pyridin-4-ylmethylthio]-N-(3,5-dimethylphenyl)pyridine-3-carboxamide] | 99% |
| Cc1cc(C)cc(NC(=O)c2cccnc2SCc2ccnc(NC=O)c2)c1 [Compound 6-1, N-(3,5-Dimethylphenyl)-2-(2-formylaminopyridin-4-ylmethylthio)pyridine-3-carboxamide] | 100% |
| CC(C)(C)OC(=O)Nc1cc(CSc2ncccc2C(=O)Nc2ccc(OC(F)(F)F)cc2)ccn1 [Compound 2-4, 2-(2-tert-Butoxycarbonylaminopyridin-4-ylmethylthio)-N-(4-trifluoromethoxyphenyl)pyridine-3-carboxamide] | 99% |
| CNC(=O)Nc1cc(CSc2ncccc2C(=O)Nc2ccc(OC(F)F)cc2)ccn1 [Compound 9-4, N-(4-Difluoromethoxyphenyl)-2-[2-(N′-methylureido)pyridin-4-ylmethylthio]pyridine-3-carboxamide] | 100% |
| CC(=O)Nc1cc(CSc2ccccc2C(=O)Nc2ccc(Cl)cc2)ccn1 [Compound 4-42, 2-(2-Acetylaminopyridin-4-ylmethylthio)-N-(4-chlorophenyl)benzamide] | 100% |
| Cc1cc(C)cc(NC(=O)c2cccnc2SCc2ccnc(NC(=O)C(C)(C)C)c2)c1 [Compound 4-5, N-(3,5-Dimethylphenyl)-2-(2-pivaloylaminopyridin-4-ylmethylthio)pyridine-3-carboxamide] | 100% |
| CC(=O)N(C)c1cc(CSc2ncccc2C(=O)Nc2cc(C)cc(C)c2)ccn1 [Compound 4-12, 2-[2-(N-Acetyl-N-methylamino)pyridin-4-ylmethylthio]-N-(3,5-dimethylphenyl)pyridine-3-carboxamide] | 100% |
| CC(=O)Nc1cc(CSc2ccccc2C(=O)Nc2ccc(C(C)(C)C)cc2)ccn1 [Compound 4-44, 2-(2-Acetylaminopyridin-4-ylmethylthio)-N-(4-tert-butylphenyl)benzamide] | 85% |
| Nc1cc(CSc2ncccc2C(=O)Nc2ccc(Cl)cc2)ccn1 [Compound 3-9, 2-(2-Aminopyridin-4-ylmethylthio)-N-(4-chlorophenyl)pyridine-3-carboxamide monohydrochloride] | 100% |
| CNC(=O)Nc1cc(CSc2ncccc2C(=O)Nc2ccc(Cl)cc2)ccn1 [Compound 9-3, N-(4-Chlorophenyl)-2-[2-(N′-methylureido)pyridin-4-ylmethylthio]pyridine-3-carboxamide] | 100% |
| CN(C)CCN(C)CC(=O)NC(Sc1ncccc1C(=O)Nc1ccc(OC(F)(F)F)cc1)c1ccncc1 (stereo not drawn) [Compound 17-28, 2-[2-(N-(2-Dimethylaminoethyl)-N-methylamino)acetylaminopyridin-4-ylmethylthio]-N-(4-trifluoromethoxyphenyl)pyridine-3-carboxamide] | 100% |
| Cc1cc(C)cc(NC(=O)c2cccnc2SCc2ccnc(NC(=O)OC(C)(C)C)c2)c1 [Compound 2-1, 2-(2-tert-Butoxycarbonylaminopyridin-4-ylmethylthio)-N-(3,5-dimethylphenyl)pyridine-3-carboxamide] | 100% |
| CC(C)(C)OC(=O)Nc1cc(CSc2ncccc2C(=O)Nc2ccc3cn[nH]c3c2)ccn1 [Compound 2-6, 2-(2-tert-Butoxycarbonylaminopyridin-4-ylmethylthio)-N-(1H-indazol-6-yl)pyridine-3-carboxamide] | 100% |
| CC(=O)Nc1cc(CSc2ncccc2C(=O)Nc2cc(C)c(O)c(C)c2)ccn1 [Compound 4-37, 2-(2-Acetylaminopyridin-4-ylmethylthio)-N-(3,5-dimethyl-4-hydroxyphenyl)pyridine-3-carboxamide] | 100% |
| CC(C)(C)OC(=O)Nc1cc(CSc2ncccc2C(=O)Nc2ccc(C(C)(C)C)cc2)ccn1 [Compound 2-5, 2-(2-tert-Butoxycarbonylaminopyridin-4-ylmethylthio)-N-(4-tert-butylphenyl)pyridine-3-carboxamide] | 95% |
| Cc1cc(C)cc(NC(=O)c2cccnc2SCc2ccnc(NC3CC3)c2)c1 [Compound 1-2, 2-(2-Cyclopropylaminopyridin-4-ylmethylthio)-N-(3,5-dimethylphenyl)pyridine-3-carboxamide] | 100% |
| CC(=O)Nc1cc(CSc2ncccc2C(=O)Nc2ccc3cn[nH]c3c2)ccn1 [Compound 4-22, 2-(2-Acetylaminopyridin-4-ylmethylthio)-N-(1H-indazol-6-yl)pyridine-3-carboxamide] | 97% |
| CC(C)(C)OC(=O)Nc1cc(CSc2ncccc2C(=O)Nc2ccc3c(c2)CCC3)ccn1 [Compound 2-3, 2-(2-tert-Butoxycarbonylaminopyridin-4-ylmethylthio)-N-(indan-5-yl)pyridine-3-carboxamide] | 100% |
| CN(C)CCN(C)CC(=O)NC(Sc1ncccc1C(=O)Nc1ccc(OC(F)F)cc1)c1ccncc1 (stereo not drawn) [Compound 17-50, N-(4-Difluoromethoxyphenyl)-2-[2-(N-(2-dimethylaminoethyl)-N-methylamino)acetylaminopyridin-4-ylmethylthio]pyridine-3-carboxamide] | 100% |
| CCCCCNc1cc(CSc2ncccc2C(=O)Nc2cc(C)cc(C)c2)ccn1 [Compound 1-20, N-(3,5-Dimethylphenyl)-2-(2-n-pentylaminopyridin-4-ylmethylthio)pyridine-3-carboxamide] | 100% |
| Cc1cc(C)cc(NC(=O)c2cccnc2SCc2ccnc(NC(=O)NC(C)(C)C)c2)c1 [Compound 5-2, 2-[2-(N′-tert-Butylureido)pyridin-4-ylmethylthio]-N-(3,5-dimethylphenyl)pyridine-3-carboxamide] | 100% |
| CC(=O)N1CCN(c2cc(CSc3ncccc3C(=O)Nc3ccc4c(c3)CCC4)ccn2)CC1 [Compound 1-11, 2-[2-(4-Acetylpiperazin-1-yl)pyridin-4-ylmethylthio]-N-(indan-5-yl)-pyridine-3-carboxamide] | 96% |
| CC(C)(C)c1ccc(NC(=O)c2cccnc2SCc2ccnc(N)c2)cc1 [Compound 3-4, 2-(2-Aminopyridin-4-ylmethylthio)-N-(4-tert-butylphenyl)pyridine-3-carboxamide monohydrochloride] | 100% |
